From patent US10895019B2, “Encoded self-assembling chemical libraries (ESACHEL)” (Eidgenoessische Technische Hochschule Zurich, priority 2002, dated 2021)

What was measured:
human carbonic anhydrase = experiment: carbonic anhydrase activity assay with substrate 4-Nitrophenylacetate (Pocker and Stone); format: biochemical; settings: absorption at 400 nm, read-out: IC50 towards human carbonic anhydrase
Method: We measured the inhibitory concentration 50 [IC50] of 4-sulfonamido benzoic acid propylamide using an activity assay described by Pocker and Stone [(1967), Biochemistry 6, 668-678]. In short, we incubated carbonic anhydrase in separate wells of a transparent 96 well microtiter plate with different concentrations of the inhibitor and the substrate 4-Nitrophenylacetate. The proceeding of the reaction was monitored at the increase of absorption at 400 nm due to formation of the product 4-nitrophenol.

streptavidin = streptavidin (Streptomyces avidinii, UniProt P22629); settings: Green (1966); cited from earlier work
streptavidin, sequence (P22629 25-183): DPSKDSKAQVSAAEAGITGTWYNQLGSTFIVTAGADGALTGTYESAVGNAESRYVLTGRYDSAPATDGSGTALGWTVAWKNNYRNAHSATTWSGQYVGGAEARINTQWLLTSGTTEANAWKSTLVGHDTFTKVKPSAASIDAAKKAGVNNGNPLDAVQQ

SMILES	IC50 (human carbonic anhydrase)	affinity to streptavidin relative to biotin (streptavidin)
CCCNC(=O)c1ccc(S(N)(=O)=O)cc1 [4-sulfonamido benzoic acid propylamide]	6 µM	
N=C1N[C@H]2[C@H](CS[C@H]2CCCCC(=O)O)N1 [Iminobiotin]		substantially reduced affinity
